# ChEMBL document CHEMBL1201862, “PubChem BioAssay data set” (2004)
# Activity calls are given as the source filed them.
# Experiments:
# [1] = target: T1, Carboxy-terminal domain RNA polymerase II polypeptide A small phosphatase 1 (Homo sapiens, UniProt Q9GZU7); experiment: CTDSP1 inhibitors, concentration-response, biochemical, absorbance readout, ultra-high-throughput screen actives (AID 540297); type: functional
# T1 sequence (Q9GZU7 whole entry): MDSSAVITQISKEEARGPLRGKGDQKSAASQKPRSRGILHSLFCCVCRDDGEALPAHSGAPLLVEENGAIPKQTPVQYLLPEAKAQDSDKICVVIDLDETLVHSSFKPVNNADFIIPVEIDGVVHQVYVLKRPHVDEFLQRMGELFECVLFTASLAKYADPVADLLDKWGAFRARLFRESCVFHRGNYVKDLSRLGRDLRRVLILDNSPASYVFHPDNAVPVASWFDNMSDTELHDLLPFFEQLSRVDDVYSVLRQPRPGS
# [2] = target: FAD-linked sulfhydryl oxidase ALR (Homo sapiens, UniProt P55789); experiment: ALR-catalysed DTT oxidation blockers – biochemical, H2O2 detection, luminescence, cherry-pick, dose response (AID 493248)
# FAD-linked sulfhydryl oxidase ALR, sequence (P55789 whole entry): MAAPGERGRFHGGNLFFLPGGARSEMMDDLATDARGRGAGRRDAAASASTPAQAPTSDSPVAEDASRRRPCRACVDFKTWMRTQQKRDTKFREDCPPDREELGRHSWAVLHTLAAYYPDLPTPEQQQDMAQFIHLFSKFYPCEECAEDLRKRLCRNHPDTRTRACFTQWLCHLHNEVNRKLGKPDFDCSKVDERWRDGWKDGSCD
# [3] = target: T2, Microphthalmia-associated transcription factor (Homo sapiens, UniProt O75030); experiment: reducers of TRPM1 reporter luminescence, concentration series – cell-based, SK-MEL-5, cherry-picked, set 3, MITF inhibitor project, dose response (AID 493073); type: functional;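 also: SK-MEL-5 melanoma cells with luciferase driven by the MITF target TRPM1 promoter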
# T2 sequence (O75030 whole entry): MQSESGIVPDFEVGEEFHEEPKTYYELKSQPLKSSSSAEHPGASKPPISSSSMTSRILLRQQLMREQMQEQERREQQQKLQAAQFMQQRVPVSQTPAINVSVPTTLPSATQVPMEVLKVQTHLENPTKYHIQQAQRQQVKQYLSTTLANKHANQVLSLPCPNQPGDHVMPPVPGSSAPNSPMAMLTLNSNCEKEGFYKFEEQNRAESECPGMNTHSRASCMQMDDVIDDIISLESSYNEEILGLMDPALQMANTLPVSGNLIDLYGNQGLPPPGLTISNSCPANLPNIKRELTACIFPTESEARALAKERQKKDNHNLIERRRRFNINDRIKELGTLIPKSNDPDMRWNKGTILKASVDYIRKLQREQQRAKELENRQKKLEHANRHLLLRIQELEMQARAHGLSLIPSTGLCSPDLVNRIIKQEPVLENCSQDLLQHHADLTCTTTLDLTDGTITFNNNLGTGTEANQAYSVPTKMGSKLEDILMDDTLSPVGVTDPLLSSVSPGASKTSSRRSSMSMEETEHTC
# [4] = fluconazole-exposed Candida albicans growth modulators – fluorescence, retest, confirmation (AID 2467); type: functional, cell-based
# Protein RecA = target: T3, Protein RecA (Mycobacterium tuberculosis, UniProt P9WHJ3); experiment: Fluorescence Cell-Free Homogeneous Dose Retest to Identify Inhibitors of RecA-Intein Splicing Activity. [Related pubchem assays (depositor defined):AID2097, AID2223, AID489010, AID492950]; type: functional
# T3 sequence (P9WHJ3 whole entry): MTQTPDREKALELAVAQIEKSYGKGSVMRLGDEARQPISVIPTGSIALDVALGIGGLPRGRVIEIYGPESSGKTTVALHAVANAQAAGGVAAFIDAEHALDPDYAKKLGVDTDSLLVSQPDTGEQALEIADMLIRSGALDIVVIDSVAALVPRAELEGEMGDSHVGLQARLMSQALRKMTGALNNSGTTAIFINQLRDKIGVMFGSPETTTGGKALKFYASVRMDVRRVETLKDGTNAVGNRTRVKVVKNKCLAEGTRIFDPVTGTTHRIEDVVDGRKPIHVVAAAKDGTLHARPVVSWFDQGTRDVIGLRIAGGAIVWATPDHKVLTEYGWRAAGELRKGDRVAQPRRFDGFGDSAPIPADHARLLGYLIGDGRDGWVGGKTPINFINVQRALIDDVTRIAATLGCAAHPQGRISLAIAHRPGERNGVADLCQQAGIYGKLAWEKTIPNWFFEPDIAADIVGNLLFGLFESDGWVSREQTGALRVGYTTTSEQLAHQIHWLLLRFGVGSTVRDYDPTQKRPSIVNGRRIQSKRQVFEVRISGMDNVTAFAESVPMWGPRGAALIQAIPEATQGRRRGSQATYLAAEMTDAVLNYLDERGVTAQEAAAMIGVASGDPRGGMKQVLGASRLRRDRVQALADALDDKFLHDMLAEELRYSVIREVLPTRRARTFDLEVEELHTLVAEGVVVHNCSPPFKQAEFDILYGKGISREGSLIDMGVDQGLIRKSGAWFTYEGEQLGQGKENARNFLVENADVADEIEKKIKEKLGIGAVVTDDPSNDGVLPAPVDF
# [5] = NIH3T3 cell viability loss – ATP luminescence, mouse fibroblasts, counter-screen, dose response (AID 2010); type: functional, cell-based;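 also: cells exposed to compound for about 90 hours before reading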
# [6] = target: T4, Heat shock factor protein 1 (Mus musculus, UniProt P38532); experiment: decrease of HSF1-responsive luciferase luminescence – cell-based, NIH3T3, dose retest, confirmation (AID 2382); type: functional;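 also: NIH3T3 fibroblasts with HSF1-driven luciferase reporter stressed by proteasome inhibitor MG132; luminescence from HSF1-driven luciferase expression after 8 hours of MG132 stress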
# T4 sequence (P38532 whole entry): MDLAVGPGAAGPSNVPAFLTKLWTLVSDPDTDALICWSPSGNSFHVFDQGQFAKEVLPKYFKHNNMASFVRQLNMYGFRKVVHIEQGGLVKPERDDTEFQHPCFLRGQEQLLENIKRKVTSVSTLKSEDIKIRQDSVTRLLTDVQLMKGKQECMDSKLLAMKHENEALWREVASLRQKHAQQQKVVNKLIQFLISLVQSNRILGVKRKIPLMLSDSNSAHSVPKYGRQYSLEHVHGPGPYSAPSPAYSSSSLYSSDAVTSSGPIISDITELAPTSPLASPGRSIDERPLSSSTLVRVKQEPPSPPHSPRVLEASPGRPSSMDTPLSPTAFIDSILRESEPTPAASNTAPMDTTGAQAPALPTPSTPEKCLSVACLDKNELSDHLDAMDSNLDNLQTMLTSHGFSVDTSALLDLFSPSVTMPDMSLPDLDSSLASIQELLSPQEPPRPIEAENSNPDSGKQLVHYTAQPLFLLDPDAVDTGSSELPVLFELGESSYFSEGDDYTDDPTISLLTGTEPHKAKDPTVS
# [7] = target: T5, Replicative DNA helicase DnaB (Mycobacterium tuberculosis, UniProt P9WMR3); experiment: DnaB intein splicing inhibitors, dose response, biochemical, cell-free fluorescence (AID 449749); type: functional
# T5 sequence (P9WMR3 whole entry): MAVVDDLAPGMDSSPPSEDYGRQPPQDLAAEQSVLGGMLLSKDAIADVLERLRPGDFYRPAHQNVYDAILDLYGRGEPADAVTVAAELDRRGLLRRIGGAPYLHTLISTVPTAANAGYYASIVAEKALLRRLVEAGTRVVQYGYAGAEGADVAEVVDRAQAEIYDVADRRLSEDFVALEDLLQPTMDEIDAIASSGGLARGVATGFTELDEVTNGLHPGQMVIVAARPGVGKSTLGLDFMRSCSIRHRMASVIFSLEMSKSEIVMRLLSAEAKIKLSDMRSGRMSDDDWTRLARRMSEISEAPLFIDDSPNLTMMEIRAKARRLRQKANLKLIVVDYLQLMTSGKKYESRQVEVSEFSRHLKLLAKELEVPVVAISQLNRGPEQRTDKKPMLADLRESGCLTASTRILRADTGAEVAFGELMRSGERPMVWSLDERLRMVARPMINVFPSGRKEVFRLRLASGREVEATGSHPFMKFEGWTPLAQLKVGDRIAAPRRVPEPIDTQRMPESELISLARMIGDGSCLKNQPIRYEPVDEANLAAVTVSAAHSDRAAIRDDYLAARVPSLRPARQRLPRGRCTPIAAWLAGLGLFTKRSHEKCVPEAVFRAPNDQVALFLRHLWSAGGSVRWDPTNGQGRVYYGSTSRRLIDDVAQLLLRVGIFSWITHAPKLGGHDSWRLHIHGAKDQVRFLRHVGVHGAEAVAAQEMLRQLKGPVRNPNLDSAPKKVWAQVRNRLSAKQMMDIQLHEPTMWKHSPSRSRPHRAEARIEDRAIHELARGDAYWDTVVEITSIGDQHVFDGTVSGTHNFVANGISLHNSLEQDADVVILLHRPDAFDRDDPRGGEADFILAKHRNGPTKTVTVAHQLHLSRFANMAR
# [8] = Trypanosoma cruzi growth suppression in host cells – NIH3T3 host cells, beta-gal luminescence, confirmation (AID 2044); type: functional, cell-based;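 also: intracellular parasites grown in NIH/3T3 mouse fibroblasts as host cells; luminescent beta-galactosidase reporter signal from transgenic T. cruzi replicating inside host cells; inhibitors lower the luminescence signal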
# [9] = NIH-3T3 fibroblast cytotoxicity, dose response, cytotoxicity control, cell-based, fluorescence, Alamar Blue, secondary assay (AID 2327); type: functional;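 also: NIH-3T3 mouse fibroblasts cultured with fluconazole at 8 µg/mL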
# cells [10] = type: functional, cell-based
# [11] = target: T6, RNA-binding protein pos-1 (Caenorhabditis elegans, UniProt G5EF15); experiment: disruptors of C. elegans POS-1 RNA interaction – biochemical, fluorescence polarization, dose response (AID 1964);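 also: purified POS-1 fused to maltose binding protein made in E. coli; potency of compounds blocking POS-1 binding to fluorescent RNA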
# T6 sequence (G5EF15 whole entry): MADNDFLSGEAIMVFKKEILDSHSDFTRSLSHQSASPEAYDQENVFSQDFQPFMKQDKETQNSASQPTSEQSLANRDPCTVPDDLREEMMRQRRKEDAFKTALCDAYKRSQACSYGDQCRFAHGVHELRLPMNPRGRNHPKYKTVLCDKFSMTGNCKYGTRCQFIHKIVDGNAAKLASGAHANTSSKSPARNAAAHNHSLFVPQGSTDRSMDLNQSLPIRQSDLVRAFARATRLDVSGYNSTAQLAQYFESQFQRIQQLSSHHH
# [12] = target: T7, Zinc finger protein mex-5 (Caenorhabditis elegans, UniProt Q9XUB2); experiment: potency of MEX-5 RNA-binding blockers – biochemical, C. elegans, fluorescence polarization, dose response (AID 1960)
# T7 sequence (Q9XUB2 whole entry): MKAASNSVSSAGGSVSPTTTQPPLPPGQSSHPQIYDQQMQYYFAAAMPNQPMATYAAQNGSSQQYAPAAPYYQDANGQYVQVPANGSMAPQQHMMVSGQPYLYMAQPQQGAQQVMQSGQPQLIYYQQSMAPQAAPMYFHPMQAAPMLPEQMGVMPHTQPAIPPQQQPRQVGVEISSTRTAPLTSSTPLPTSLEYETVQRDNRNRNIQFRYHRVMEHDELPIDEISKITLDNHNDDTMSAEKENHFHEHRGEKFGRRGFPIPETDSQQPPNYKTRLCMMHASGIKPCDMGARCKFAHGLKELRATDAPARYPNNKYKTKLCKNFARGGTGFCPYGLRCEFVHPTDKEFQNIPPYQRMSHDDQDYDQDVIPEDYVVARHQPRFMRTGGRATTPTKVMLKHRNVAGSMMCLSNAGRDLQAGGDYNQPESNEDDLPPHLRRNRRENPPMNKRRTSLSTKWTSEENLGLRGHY
# cells [13] = type: functional, cell-based; remark: listed apart in the source
# INS1 = experiment: INS-1E survival protection against cytokine death – cell-based, luminescence, retest, dose response (AID 449756); type: functional; details: Rattus norvegicus;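 also: cell death triggered by IL-1 beta plus TNF-alpha plus IFN-gamma mixture; protective hits raise ATP signal compared with cytokine alone wells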
# Genome polyprotein = Genome polyprotein (dengue virus type 2, UniProt P29990); experiment: flavivirus cap methylation enzyme inhibition – biochemical, confirmation dose response, primary screen (AID 588689); type: functional
# Genome polyprotein, sequence (P29990 2492-3391 limits assumed): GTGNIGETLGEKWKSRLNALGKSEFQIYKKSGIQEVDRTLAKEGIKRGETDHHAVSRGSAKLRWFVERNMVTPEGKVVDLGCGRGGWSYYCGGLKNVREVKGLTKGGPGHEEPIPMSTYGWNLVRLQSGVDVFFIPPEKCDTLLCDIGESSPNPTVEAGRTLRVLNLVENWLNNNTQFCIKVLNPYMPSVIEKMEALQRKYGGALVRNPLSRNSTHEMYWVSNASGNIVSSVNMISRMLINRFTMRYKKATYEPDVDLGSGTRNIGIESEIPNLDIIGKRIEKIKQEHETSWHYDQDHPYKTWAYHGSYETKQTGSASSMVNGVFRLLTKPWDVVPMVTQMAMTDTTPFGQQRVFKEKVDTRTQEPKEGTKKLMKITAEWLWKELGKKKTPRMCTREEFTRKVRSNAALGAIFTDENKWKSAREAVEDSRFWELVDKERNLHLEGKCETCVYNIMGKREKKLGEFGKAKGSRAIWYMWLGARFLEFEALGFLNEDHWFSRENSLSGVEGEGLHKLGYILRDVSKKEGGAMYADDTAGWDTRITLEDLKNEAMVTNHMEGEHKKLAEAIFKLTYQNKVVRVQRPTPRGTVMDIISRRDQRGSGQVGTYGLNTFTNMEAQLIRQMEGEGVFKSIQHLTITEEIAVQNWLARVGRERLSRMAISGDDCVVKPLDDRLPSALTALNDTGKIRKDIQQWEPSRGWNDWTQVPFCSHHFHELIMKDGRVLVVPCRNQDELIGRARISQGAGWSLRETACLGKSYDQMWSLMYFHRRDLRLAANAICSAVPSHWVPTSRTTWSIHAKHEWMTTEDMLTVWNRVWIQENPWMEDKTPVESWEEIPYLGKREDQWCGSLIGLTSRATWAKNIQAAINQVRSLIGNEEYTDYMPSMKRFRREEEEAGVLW
# [14] = target: Heat shock protein HSP 90-alpha (Homo sapiens, UniProt P07900); type: functional, organism-based
# [15] = test system: Streptococcus sp. 'group A'; experiment: Streptococcus pyogenes SK(-)GAS viability under kanamycin – luminescence, BacTiterGlo, confirmation, counter-screen for streptokinase expression inhibitor project, dose response (AID 1900); type: functional, organism-based
# Streptococcus = experiment: GAS UMAA2166 growth inhibition – luminescence, BacTiterGlo, counter-screen for streptokinase expression inhibitor project, dose response (AID 1915); type: functional, organism-based;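 also: potency for reduction of bacterial viability or growth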
smiles,measurement,setting,value
O=C(Nc1ccc(F)cc1)c1cccc(N2C(=O)c3ccccc3C2=O)c1,IC50,[1],11.1 µM (active)
Oc1ccc(Br)cc1-c1cc(-c2ccco2)[nH]n1,AC50,[2],3.51 µM (active)
O=C(CCl)Nc1ccc(-c2ccccc2)cc1,AC50,[3],7.3 µM (active)
same,EC50,[4],1.77 µM (active)
same,EC50,Protein RecA,0.587 µM (active)
same,EC50,[5],< 6 µM (inconclusive)
same,EC50,[6],9.64 µM (active)
same,AC50,[7],20.5 µM (active)
same,EC50,[8],1.69 µM (active)
same,EC50,[9],4.59 µM (inconclusive)
CC1(OC(=O)c2cccs2)C(=O)C=C2C=C(C3CC3)OC=C2C1=O (configuration not stated),EC50,cells [10],> 350 µM (not active)
same,EC50,[11],42.3 µM (active)
same,EC50,[12],33 µM (active)
same,EC50,cells [13],> 350 µM (not active)
C=C1c2cccc(OC)c2O[C@H](C(=O)OCC)[C@@H]1CC(CC)CCCC (some centres not stated),IC50,[1],52.1 µM (active)
C[N+]1=C(/C=C/Nc2ccccc2Cl)C(C)(C)c2ccccc21,IC50,[1],5.96 µM (active)
same,AC50,INS1,7.84 µM (active)
COc1cc(/C=C2\SC(=S)N(CCCCC(=O)O)C2=O)ccc1OS(=O)(=O)c1ccc(C)cc1,IC50,[1],4.16 µM (active)
same,IC50,Genome polyprotein,39.8 µM (active)
O=[N+]([O-])c1ccc(CSC2=NCCN2)cc1,AC50,[2],0.04 µM (active)
COc1ccc2cc3cc(C(=O)NCc4ccco4)oc3nc2c1,IC50,[1],10.1 µM (active)
Fc1ccc(CSc2nnc(-c3cnccn3)n2Cc2ccco2)cc1,AC50,[2],3.85 µM (active)
CCCc1ccc(C(=O)NNC(=O)c2ccc(Br)cc2)cc1,IC50,[1],5.88 µM (active)
CCC(C)C(=O)N1CCc2cc(-c3csc(N)n3)ccc21 (configuration not stated),AC50,[2],0.3 µM (active)
CCCCOc1ccc(CNC(=O)NS(=O)(=O)c2ccc(OCC(C)C)cc2)cc1,IC50,[1],14.8 µM (active)
CCN(C(=O)C1CCCN(c2nc(-c3ccc(OC)cc3)no2)C1)c1ccc(OC)cc1 (configuration not stated),AC50,[14],7.81 µM (active)
O=C(O)c1cccc(NC(=O)c2cccc(NC(=O)C3CCCO3)c2)c1 (configuration not stated),AC50,[3],21.2 µM (active)
O=C(/C=C/c1ccccc1)CCN1CCCCC1,AC50,[14],3.9 µM (active)
O=S(=O)(c1c(F)cccc1F)N(CCc1ccc(F)cc1)C[C@@H](O)COCc1ccccc1,AC50,[14],0.392 µM (active)
Cc1cc(-c2nnc(S)n2/N=C/C(Cl)=C/c2ccccc2)[nH]n1,AC50,[2],0.109 µM (active)
Cc1cccc(/C=N/NC(=O)c2ccc3c(c2)OCCO3)c1O,EC50,cells [10],6.39 µM (active)
same,EC50,[15],3.05 µM (active)
same,AC50,INS1,1.8 µM (active)
same,EC50,Streptococcus,6.82 µM (active)
same,EC50,cells [13],66.1 µM (active)
C/C(=N\NC(=O)CCCNc1cccc(C)c1)c1ccncc1,AC50,[2],2.59 µM (active)
C/C(=N\Nc1ccc(Cl)cc1)c1ccccn1,AC50,[2],1.03 µM (active)
